“And” between values parts separate entries of the source, which are not always exact repeats. Equal values may be shown once. Results filed as inconclusive are left out.
System: BDF1 mice, s.c. Lewis lung carcinoma, T/C %
Test: NCI In Vivo Anticancer Drug Screen. Data for tumor model Lewis Lung Carcinoma (subcutaneous) in B6D2F1 (BDF1) mice
In short: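 Antitumor effect in vivo is scored from survival or tumor burden, reported as treated relative to vehicle controls.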

## CC[C@]1(O)C[C@H]2CN(CCc3c([nH]c4ccccc34)[C@@](C(=O)OC)(c3cc4c(cc3OC)N(C=O)[C@H]3[C@@](O)(C(=O)OC)[C@H](OC(C)=O)[C@]5(CC)C=CCN6CC[C@]43[C@@H]65)C2)C1
endpoint: mean survival time, dose: 0.5 mg/kg/injection, schedule: Q08DX002 (ip), vehicle: saline, higher = longer survival
  T/C: 101 % of control
endpoint: mean survival time, dose: 1.0 mg/kg/injection, schedule: Q08DX002 (ip), vehicle: saline, higher = longer survival
  T/C: 104 % of control
endpoint: mean survival time, dose: 1.5 mg/kg/injection, schedule: Q08DX002 (ip), vehicle: saline, higher = longer survival
  T/C: 106 % of control
endpoint: mean tumor weight, dose: 0.05 mg/kg/injection, schedule: Q01DX011 (ip), vehicle: saline, higher = larger tumour
  T/C: 81 % of control
endpoint: mean tumor weight, dose: 0.1 mg/kg/injection, schedule: Q01DX011 (ip), vehicle: saline, higher = larger tumour
  T/C: 83 % of control
endpoint: mean tumor weight, dose: 0.15 mg/kg/injection, schedule: Q01DX011 (ip), vehicle: saline, higher = larger tumour
  T/C: 87 % of control and 101 % of control
endpoint: mean tumor weight, dose: 0.22 mg/kg/injection, schedule: Q01DX011 (ip), vehicle: saline, higher = larger tumour
  T/C: 88 % of control
endpoint: mean tumor weight, dose: 0.5 mg/kg/injection, schedule: Q01DX011 (ip), vehicle: saline, higher = larger tumour
  T/C: 59 % of control
endpoint: mean tumor weight, dose: 62.5 micrograms/kg/injection, schedule: Q01DX011 (ip), vehicle: saline, higher = larger tumour
  T/C: 59 % of control
endpoint: mean tumor weight, dose: 125.0 micrograms/kg/injection, schedule: Q01DX011 (ip), vehicle: saline, higher = larger tumour
  T/C: 80 % of control
endpoint: mean tumor weight, dose: 250.0 micrograms/kg/injection, schedule: Q01DX011 (ip), vehicle: saline, higher = larger tumour
  T/C: 59 % of control
endpoint: median survival time, dose: 0.12 mg/kg/injection, schedule: Q01DX009 (ip), vehicle: saline, higher = longer survival
  T/C: 116 % of control
endpoint: median survival time, dose: 0.12 mg/kg/injection, schedule: Q04DX003 (ip), vehicle: saline, higher = longer survival
  T/C: 104 % of control
endpoint: median survival time, dose: 0.13 mg/kg/injection, schedule: Q01DX009 (ip), vehicle: saline, higher = longer survival
  T/C: 100 % of control
endpoint: median survival time, dose: 0.25 mg/kg/injection, schedule: Q01DX009 (ip), vehicle: saline, higher = longer survival
  T/C: 108 % of control
endpoint: median survival time, dose: 0.25 mg/kg/injection, schedule: Q04DX003 (ip), vehicle: saline, higher = longer survival
  T/C: 108 % of control
endpoint: median survival time, dose: 0.5 mg/kg/injection, schedule: Q01DX009 (ip), vehicle: saline, higher = longer survival
  T/C: 108 % of control
endpoint: median survival time, dose: 0.5 mg/kg/injection, schedule: Q04DX003 (ip), vehicle: saline, higher = longer survival
  T/C: 88 % of control
endpoint: median survival time, dose: 0.5 mg/kg/injection, schedule: Q08DX002 (ip), vehicle: saline, higher = longer survival
  T/C: 104 % of control
endpoint: median survival time, dose: 1.0 mg/kg/injection, schedule: Q04DX003 (ip), vehicle: saline, higher = longer survival
  T/C: 93 % of control
endpoint: median survival time, dose: 1.0 mg/kg/injection, schedule: Q08DX002 (ip), vehicle: saline, higher = longer survival
  T/C: 104 % of control
endpoint: median survival time, dose: 1.5 mg/kg/injection, schedule: Q08DX002 (ip), vehicle: saline, higher = longer survival
  T/C: 108 % of control
endpoint: median survival time, dose: 2.0 mg/kg/injection, schedule: Q04DX003 (ip), vehicle: saline, higher = longer survival
  T/C: 53 % of control
endpoint: median survival time, dose: 125.0 micrograms/kg/injection, schedule: Q01DX009 (ip), vehicle: saline, higher = longer survival
  T/C: 88 % of control and 118 % of control
endpoint: median survival time, dose: 250.0 micrograms/kg/injection, schedule: Q01DX009 (ip), vehicle: saline, higher = longer survival
  T/C: 93 % of control
endpoint: median survival time, dose: 500.0 micrograms/kg/injection, schedule: Q01DX009 (ip), vehicle: saline, higher = longer survival
  T/C: 97 % of control
endpoint: median tumor weight (est.), dose: 0.12 mg/kg/injection, schedule: Q01DX011 (ip), vehicle: saline, higher = larger tumour
  T/C: 102 % of control
endpoint: median tumor weight (est.), dose: 0.18 mg/kg/injection, schedule: Q01DX011 (ip), vehicle: saline, higher = larger tumour
  T/C: 46 % of control
endpoint: median tumor weight (est.), dose: 125.0 micrograms/kg/injection, schedule: Q01DX009 (ip), vehicle: saline, higher = larger tumour
  T/C: 92 % of control
endpoint: median tumor weight (est.), dose: 250.0 micrograms/kg/injection, schedule: Q01DX009 (ip), vehicle: saline, higher = larger tumour
  T/C: 93 % of control
endpoint: median tumor weight (est.), dose: 500.0 micrograms/kg/injection, schedule: Q01DX009 (ip), vehicle: saline, higher = larger tumour
  T/C: 43 % of control

## CCCCOP(=S)(N1CC1)N1CC1
endpoint: mean tumor weight, dose: 2.5 mg/kg/injection, schedule: Q01DX011 (ip), vehicle: saline, higher = larger tumour
  T/C: 79 % of control
endpoint: mean tumor weight, dose: 5.0 mg/kg/injection, schedule: Q01DX011 (ip), vehicle: saline, higher = larger tumour
  T/C: 52 % of control
endpoint: mean tumor weight, dose: 10.0 mg/kg/injection, schedule: Q01DX011 (ip), vehicle: saline, higher = larger tumour
  T/C: 23 % of control

## C[C@]12CCC(=O)C=C1CC[C@@H]1[C@@H]2[C@@H](O)C[C@@]2(C)[C@H]1CC[C@]2(O)C(=O)COC(=O)c1ccc([N+](=O)[O-])cc1Cl
endpoint: mean tumor weight, dose: 25.0 mg/kg/injection, schedule: Q01DX011 (sc), vehicle: steriod suspending solution, higher = larger tumour
  T/C: 65 % of control
endpoint: mean tumor weight, dose: 50.0 mg/kg/injection, schedule: Q01DX011 (sc), vehicle: steriod suspending solution, higher = larger tumour
  T/C: 71 % of control
endpoint: mean tumor weight, dose: 100.0 mg/kg/injection, schedule: Q01DX011 (sc), vehicle: steriod suspending solution, higher = larger tumour
  T/C: 47 % of control
endpoint: mean tumor weight, dose: 200.0 mg/kg/injection, schedule: Q01DX011 (sc), vehicle: steriod suspending solution, higher = larger tumour
  T/C: 53 % of control
endpoint: mean tumor weight, dose: 250.0 mg/kg/injection, schedule: Q01DX011 (sc), vehicle: steriod suspending solution, higher = larger tumour
  T/C: 18 % of control
endpoint: mean tumor weight, dose: 500.0 mg/kg/injection, schedule: Q01DX011 (sc), vehicle: steriod suspending solution, higher = larger tumour
  T/C: 25 % of control
endpoint: mean tumor weight, dose: 750.0 mg/kg/injection, schedule: Q01DX011 (sc), vehicle: steriod suspending solution, higher = larger tumour
  T/C: 13 % of control

## C/C=C/c1cc2n(c1)C(=O)c1cc(OC3OC(C)C(NC)C(C)(O)C3O)c(C)c(O)c1NC2O (stereo unspecified)
endpoint: median survival time, dose: 2.0 micrograms/kg/injection, schedule: Q04DX003 (ip), vehicle: saline, higher = longer survival
  T/C: 102 % of control
endpoint: median survival time, dose: 4.0 micrograms/kg/injection, schedule: Q04DX003 (ip), vehicle: saline, higher = longer survival
  T/C: 92 % of control
endpoint: median survival time, dose: 8.0 micrograms/kg/injection, schedule: Q04DX003 (ip), vehicle: saline, higher = longer survival
  T/C: 103 % of control
endpoint: median survival time, dose: 16.0 micrograms/kg/injection, schedule: Q04DX003 (ip), vehicle: saline, higher = longer survival
  T/C: 95 % of control

## Cc1ncc([N+](=O)[O-])n1CCO
endpoint: median survival time, dose: 37.5 mg/kg/injection, schedule: Q01DX009 (ip), vehicle: Klucel (hydroxypropylcellulose) (HPC), higher = longer survival
  T/C: 98 % of control
endpoint: median survival time, dose: 37.5 mg/kg/injection, schedule: Q04DX003 (ip), vehicle: Klucel (hydroxypropylcellulose) (HPC), higher = longer survival
  T/C: 92 % of control
endpoint: median survival time, dose: 75.0 mg/kg/injection, schedule: Q01DX009 (ip), vehicle: Klucel (hydroxypropylcellulose) (HPC), higher = longer survival
  T/C: 106 % of control
endpoint: median survival time, dose: 75.0 mg/kg/injection, schedule: Q04DX003 (ip), vehicle: Klucel (hydroxypropylcellulose) (HPC), higher = longer survival
  T/C: 97 % of control
endpoint: median survival time, dose: 150.0 mg/kg/injection, schedule: Q01DX009 (ip), vehicle: Klucel (hydroxypropylcellulose) (HPC), higher = longer survival
  T/C: 96 % of control
endpoint: median survival time, dose: 150.0 mg/kg/injection, schedule: Q04DX003 (ip), vehicle: Klucel (hydroxypropylcellulose) (HPC), higher = longer survival
  T/C: 96 % of control
endpoint: median survival time, dose: 300.0 mg/kg/injection, schedule: Q01DX009 (ip), vehicle: Klucel (hydroxypropylcellulose) (HPC), higher = longer survival
  T/C: 97 % of control
endpoint: median survival time, dose: 300.0 mg/kg/injection, schedule: Q04DX003 (ip), vehicle: Klucel (hydroxypropylcellulose) (HPC), higher = longer survival
  T/C: 100 % of control
endpoint: median survival time, dose: 600.0 mg/kg/injection, schedule: Q01DX009 (ip), vehicle: Klucel (hydroxypropylcellulose) (HPC), higher = longer survival
  T/C: 105 % of control
endpoint: median survival time, dose: 600.0 mg/kg/injection, schedule: Q04DX003 (ip), vehicle: Klucel (hydroxypropylcellulose) (HPC), higher = longer survival
  T/C: 91 % of control

## CN(C)CCOC(=O)COc1ccc(Cl)cc1
endpoint: median survival time, dose: 200.0 mg/kg/injection, schedule: Q01DX005 (ip), vehicle: saline, higher = longer survival
  T/C: 103 % of control and 116 % of control
endpoint: median survival time, dose: 300.0 mg/kg/injection, schedule: Q01DX005 (ip), vehicle: saline, higher = longer survival
  T/C: 119 % of control

## Nc1ccc(OC(=O)Oc2ccc(N)cc2)cc1
endpoint: mean tumor weight, dose: 31.3 mg/kg/injection, schedule: Q01DX011 (ip), vehicle: saline, higher = larger tumour
  T/C: 60 % of control
endpoint: mean tumor weight, dose: 62.5 mg/kg/injection, schedule: Q01DX011 (ip), vehicle: saline, higher = larger tumour
  T/C: 79 % of control
endpoint: mean tumor weight, dose: 125.0 mg/kg/injection, schedule: Q01DX011 (ip), vehicle: saline, higher = larger tumour
  T/C: 49 % of control
endpoint: mean tumor weight, dose: 250.0 mg/kg/injection, schedule: Q01DX011 (ip), vehicle: saline, higher = larger tumour
  T/C: 18 % of control

## Cc1ccc(NC(=O)N(CCCl)N=O)cc1NC(=O)N(CCCl)N=O
endpoint: median survival time, dose: 3.12 mg/kg/injection, schedule: Q01DX009 (ip), vehicle: other, higher = longer survival
  T/C: 93 % of control
endpoint: median survival time, dose: 6.25 mg/kg/injection, schedule: Q01DX009 (ip), vehicle: other, higher = longer survival
  T/C: 87 % of control

## CN[C@@H](C)[C@@H](O)c1ccccc1
endpoint: mean tumor weight, dose: 25.0 mg/kg/injection, schedule: Q01DX011 (ip), vehicle: carboxymethylcellulose (CMC), higher = larger tumour
  T/C: 123 % of control
endpoint: mean tumor weight, dose: 100.0 mg/kg/injection, schedule: Q01DX011 (ip), vehicle: carboxymethylcellulose (CMC), higher = larger tumour
  T/C: 85 % of control
endpoint: mean tumor weight, dose: 200.0 mg/kg/injection, schedule: Q01DX011 (ip), vehicle: carboxymethylcellulose (CMC), higher = larger tumour
  T/C: 72 % of control

Reference: PubChem BioAssay AID270 (DTP/NCI, 2004)
